This note sets out measurements from ChEMBL document CHEMBL1201862, “PubChem BioAssay data set” (2004).

Each structure is given as a SMILES string.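 Step 1: Grow cells in 96-well plates. Step 2: Expose to compound for 48 hours at 5 concentrations. Step 3: Interpolate endpoints linearly; if unreached, use highest concentration. GI50 = concentration required for 50% inhibition of growth.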 Active and inactive are the calls of the source. No stated cut-off is given here; in the data, active = GI50 up to about 1.1 µM and inactive = higher.

Some test systems named below: LOX IMVI; OVCAR-4; HCT-15; HCT-116; UACC-257; SF-539; MOLT-4; SNB-78; U-251; Malme-3M; UO-31; RPMI-8226; HCC 2998; SK-MEL-2.
Holding throughout (assay): NCI-60 cell line screen, 48 h

In the case of `O=[N+]([O-])c1cc(I)cc(/C=N/NS(=O)(=O)c2ccc(Cl)cc2)c1O`, the GI50 with LOX IMVI was 19.8 µM (inactive); in the experiment on OVCAR-4, 30.5 µM (inactive); in the experiment on HCT-15, 20.4 µM; in the experiment with HCT-116, 21.2 µM (inactive); with UACC-257 it was 24.4 µM (inactive); with SF-539, 23 µM (inactive). For the same compound, the GI50 in the experiment with MOLT-4 was 19.5 µM (inactive); in the experiment with SNB-78 it was 27.5 µM (inactive); in the experiment on U-251, 18.7 µM (inactive); in the experiment with Malme-3M it was 22 µM (inactive); with UO-31, 20.1 µM (inactive); with RPMI-8226, 25.4 µM (inactive). In addition, the figures for the GI50 in the experiment with HCC 2998 and with SK-MEL-2 were 22.1 µM (inactive) and 23.5 µM (inactive), respectively.

Consider `CC(=O)O[C@]1(C)CCC2C(C)C(=O)OC2C2C(C)[C@@H](O)CC21` (stereo partly specified), for which the GI50 with LOX IMVI is 17.9 µM (inactive); with OVCAR-4 it was 26.2 µM (inactive); with HCT-15, 18.1 µM; in the experiment on HCT-116 it was 27.2 µM (inactive); in the experiment on UACC-257, > 100 µM (inactive); in the experiment with SF-539, 39.5 µM (inactive). Also, the GI50 is 74 µM (inactive) in the experiment on SNB-78; 30.1 µM (inactive) in the experiment on U-251; > 100 µM (inactive) with Malme-3M; 48.9 µM (inactive) in the experiment on UO-31; 20.5 µM (inactive) in the experiment on RPMI-8226; 24.6 µM (inactive) in the experiment with HCC 2998. For the same compound, the GI50 in the experiment with SK-MEL-2 is 20.3 µM (inactive).

Turning to `Cc1nn(C)c(=S)n(C)c1=O`, the GI50 in the experiment on LOX IMVI is 1.79 µM (inactive); with OVCAR-4 it was 5.83 µM (inactive); in the experiment on HCT-15 it was 3.76 µM; in the experiment on HCT-116, 0.416 µM (active); in the experiment with UACC-257 it was 1.05 µM (active); in the experiment on SF-539, 0.83 µM (active). For the same compound, the GI50 in the experiment on MOLT-4 is 1.29 µM (inactive); in the experiment on SNB-78, 3.18 µM (inactive); in the experiment on U-251, 1.75 µM (inactive); in the experiment on Malme-3M, 2.89 µM (inactive); in the experiment with UO-31, 0.229 µM (active); in the experiment on RPMI-8226, 0.556 µM (active). The GI50 in the experiment with HCC 2998 is 4.1 µM (inactive); with SK-MEL-2, 0.733 µM (active).

With `COC(=O)NC(=O)c1cn(C2CCCCC2)c(=O)[nH]c1=O`, the GI50 in the experiment with LOX IMVI was > 100 µM (inactive); in the experiment on OVCAR-4 it was > 100 µM (inactive); in the experiment on HCT-15, over 100 µM; with HCT-116, > 100 µM (inactive); in the experiment with UACC-257 it was > 100 µM (inactive); in the experiment with SF-539, > 100 µM (inactive). Moreover, the GI50 in the experiment with MOLT-4, in the experiment on SNB-78, in the experiment with U-251, with Malme-3M, in the experiment with UO-31 and in the experiment on RPMI-8226 was > 100 µM (inactive) in each case. The GI50 in the experiment with HCC 2998 and with SK-MEL-2 was > 100 µM (inactive) in each case.

Consider `C/C(CC(=O)Nc1ccc(Cl)cc1)=N\NC(N)=S`, for which the GI50 is 1.81 µM (inactive) with LOX IMVI; 71.4 µM (inactive) in the experiment with HCT-116; 21.9 µM (inactive) in the experiment with UACC-257; 34.2 µM (inactive) with SF-539; 45.3 µM (inactive) in the experiment with MOLT-4; > 100 µM (inactive) with SNB-78. The GI50 was > 100 µM (inactive) with U-251; > 100 µM (inactive) in the experiment on Malme-3M; 61.8 µM (inactive) in the experiment on RPMI-8226; 30.9 µM (inactive) with HCC 2998; > 100 µM (inactive) with SK-MEL-2.

`O=C(OCCOCBr)c1ccccc1`: the GI50 in the experiment on LOX IMVI was > 100 µM (inactive); in the experiment on OVCAR-4, > 100 µM (inactive); in the experiment with HCT-15, over 100 µM; with HCT-116, > 100 µM (inactive); in the experiment with UACC-257, > 100 µM (inactive); in the experiment on SF-539, > 100 µM (inactive). Further, the GI50 in the experiment on MOLT-4, in the experiment on SNB-78, in the experiment with U-251, with Malme-3M, in the experiment with UO-31 and in the experiment with RPMI-8226 was > 100 µM (inactive) each time. The GI50 in the experiment on HCC 2998 and with SK-MEL-2 was > 100 µM (inactive) throughout.

On to `CC(=O)Nc1ccc(C(=O)N2N=C(C)/C(=C/c3ccccc3O)C2=O)cc1`, for which the GI50 was > 100 µM (inactive) with LOX IMVI; > 100 µM (inactive) in the experiment with OVCAR-4; over 100 µM in the experiment on HCT-15; > 100 µM (inactive) in the experiment with HCT-116; > 100 µM (inactive) with UACC-257; > 100 µM (inactive) in the experiment on SF-539. The GI50 with MOLT-4, in the experiment with SNB-78, in the experiment with Malme-3M, in the experiment with UO-31, with RPMI-8226 and in the experiment on HCC 2998 was > 100 µM (inactive) in each case. Also, the GI50 in the experiment on SK-MEL-2 is > 100 µM (inactive).

With `N/N=C(/Cc1nc2ccc(C(=O)c3ccccc3)cc2nc1O)C(=O)Nc1ccc([N+](=O)[O-])cc1[N+](=O)[O-]`, the GI50 was > 10 µM (inactive) in the experiment on LOX IMVI; 27.3 µM (inactive) in the experiment on OVCAR-4; over 10 µM in the experiment with HCT-15; > 10 µM (inactive) in the experiment on HCT-116; > 100 µM (inactive) in the experiment on UACC-257; > 100 µM (inactive) with SF-539. Moreover, the GI50 with MOLT-4 is > 10 µM (inactive); in the experiment with SNB-78, > 10 µM (inactive); in the experiment on U-251, > 10 µM (inactive); in the experiment on Malme-3M it was > 100 µM (inactive); in the experiment on UO-31 it was 68.2 µM (inactive); with RPMI-8226 it was > 10 µM (inactive). Also, the GI50 with HCC 2998 and in the experiment on SK-MEL-2 was > 10 µM (inactive) throughout.

For `NCCn1cnc2nc(NC(=O)c3ccccc3)[nH]c(=O)c21`, the GI50 with LOX IMVI was > 100 µM (inactive); in the experiment with HCT-15, over 100 µM; in the experiment with HCT-116, > 100 µM (inactive); in the experiment on UACC-257, > 100 µM (inactive); in the experiment on SF-539, > 100 µM (inactive); in the experiment on MOLT-4, > 100 µM (inactive). For the same compound, the GI50 in the experiment with SNB-78, in the experiment with U-251, with Malme-3M, in the experiment on UO-31, with RPMI-8226 and in the experiment on HCC 2998 was > 100 µM (inactive) throughout. For the same compound, the GI50 in the experiment with SK-MEL-2 is > 100 µM (inactive).

`CCC(O)C1Cc2c(C)cc3c(c2O1)C(=O)c1ccccc1C3=O` (stereo unspecified): the GI50 is 27.7 µM (inactive) in the experiment on LOX IMVI; 33.3 µM (inactive) in the experiment on OVCAR-4; 19.6 µM in the experiment with HCT-15; 40.6 µM (inactive) with HCT-116; 69 µM (inactive) in the experiment on UACC-257; 27.4 µM (inactive) in the experiment on MOLT-4. Besides, the GI50 in the experiment on SNB-78 was 33.2 µM (inactive); in the experiment on U-251, 26.2 µM (inactive); with Malme-3M, 34.6 µM (inactive); with UO-31, 21 µM (inactive); in the experiment with RPMI-8226, 27.9 µM (inactive); in the experiment on HCC 2998, 29.6 µM (inactive). Also, the GI50 in the experiment with SK-MEL-2 was 44.4 µM (inactive).

As to `C/C(=N\NC(N)=O)c1sc(-c2nc(C)c(/C(C)=N/NC(N)=O)s2)nc1C`, the GI50 was > 100 µM (inactive) with LOX IMVI; > 100 µM (inactive) in the experiment on OVCAR-4; 21.9 µM in the experiment on HCT-15; > 10 µM (inactive) in the experiment on HCT-116; > 100 µM (inactive) with UACC-257; > 100 µM (inactive) with SF-539. Also, the GI50 with MOLT-4 was > 100 µM (inactive); with SNB-78, > 100 µM (inactive); with U-251, 99.3 µM (inactive); in the experiment with Malme-3M, > 100 µM (inactive); in the experiment with UO-31, > 100 µM (inactive); in the experiment with RPMI-8226, > 100 µM (inactive). Besides, the GI50 in the experiment with HCC 2998 and with SK-MEL-2 was > 100 µM (inactive) in each case.

Regarding `CCCCCCCCCCCCCc1nnn[nH]1`, the GI50 in the experiment with LOX IMVI was 18.4 µM (inactive); with OVCAR-4 it was 18.3 µM (inactive); in the experiment with HCT-15 it was 18.3 µM; in the experiment with HCT-116, 17.9 µM (inactive); in the experiment with UACC-257 it was 18.7 µM (inactive); with SF-539, 18.2 µM (inactive). In addition, the GI50 with SNB-78 was 21.4 µM (inactive); in the experiment with U-251, 18.2 µM (inactive); in the experiment on Malme-3M it was 18.1 µM (inactive); with UO-31 it was 16 µM (inactive); in the experiment on RPMI-8226 it was 22.4 µM (inactive); in the experiment with HCC 2998, 18.6 µM (inactive). For the same compound, the GI50 in the experiment on SK-MEL-2 was 18.2 µM (inactive).

`Cc1ccc(S(=O)(=O)c2ccc(N)cc2)cc1`: the GI50 was > 100 µM (inactive) in the experiment with OVCAR-4; over 100 µM in the experiment with HCT-15; > 100 µM (inactive) in the experiment on HCT-116; > 100 µM (inactive) in the experiment on UACC-257; > 100 µM (inactive) with SF-539; > 100 µM (inactive) with MOLT-4. In addition, the GI50 with SNB-78, in the experiment with U-251, with Malme-3M, with UO-31, in the experiment on RPMI-8226 and in the experiment on HCC 2998 was > 100 µM (inactive) in each case. For the same compound, in the experiment with SK-MEL-2, the GI50 was > 100 µM (inactive).

As for `c1nc2cscc2c2cscc12`, the GI50 was > 100 µM (inactive) with LOX IMVI; > 100 µM (inactive) in the experiment on OVCAR-4; over 100 µM in the experiment with HCT-15; > 100 µM (inactive) in the experiment with HCT-116; > 100 µM (inactive) with UACC-257; > 100 µM (inactive) in the experiment on SF-539. Further, the GI50 with MOLT-4, in the experiment with SNB-78, in the experiment with U-251, with Malme-3M, in the experiment on UO-31 and with RPMI-8226 was > 100 µM (inactive) in each case. In addition, the GI50 with HCC 2998 and with SK-MEL-2 was > 100 µM (inactive) throughout.

Turning to `CCOC(=O)c1oc2c(OC)cc(Cl)c3c2c1CCC3`, the GI50 in the experiment with LOX IMVI was > 100 µM (inactive); in the experiment on OVCAR-4, 38.6 µM (inactive); in the experiment on HCT-15 it was over 100 µM; in the experiment on HCT-116 it was 44.3 µM (inactive); in the experiment with UACC-257, > 100 µM (inactive); in the experiment on SF-539 it was > 100 µM (inactive). Further, the GI50 with MOLT-4 was > 100 µM (inactive); in the experiment with SNB-78 it was > 100 µM (inactive); with U-251, 45 µM (inactive); with Malme-3M, > 100 µM (inactive); in the experiment on UO-31, 28.6 µM (inactive); in the experiment on RPMI-8226 it was > 100 µM (inactive). The GI50 with HCC 2998 and with SK-MEL-2 was > 100 µM (inactive) in each case.
